Experimental data: US20030055065A1, “Tricyclic amide and urea compounds useful for inhibition of G-protein function and for treatment of proliferative diseases” (priority 1993, published 2003)

molecular target: T1, farnesyl protein transferase (FPT), partially purified from rat brain (Rattus norvegicus, UniProt Q02293+Q04631); assay: Inhibition of farnesyl protein transferase (transfer of [3H]farnesyl to Ras-CVLS); assay type: biochemical; conditions: Ras-CVLS farnesylation, partially purified rat brain FPT; read-out: FPT IC50
T1 construct: were partially purified from rat brain by ammonium sulfate fractionation followed by Q-Sepharose
T1 sequence (Q02293 whole entry, one chain of several): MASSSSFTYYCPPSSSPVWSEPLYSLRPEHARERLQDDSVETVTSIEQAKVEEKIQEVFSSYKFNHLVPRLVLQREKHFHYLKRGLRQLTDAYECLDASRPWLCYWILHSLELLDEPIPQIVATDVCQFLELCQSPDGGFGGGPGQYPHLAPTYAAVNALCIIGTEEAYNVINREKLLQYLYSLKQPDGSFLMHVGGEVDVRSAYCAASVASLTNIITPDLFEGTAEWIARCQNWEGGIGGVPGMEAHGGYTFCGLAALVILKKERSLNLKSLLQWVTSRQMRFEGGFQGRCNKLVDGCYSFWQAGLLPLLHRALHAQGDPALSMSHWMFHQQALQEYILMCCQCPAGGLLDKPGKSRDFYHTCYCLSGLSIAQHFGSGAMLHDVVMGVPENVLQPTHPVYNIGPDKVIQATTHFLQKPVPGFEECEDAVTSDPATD
Outline: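 Partially purified farnesyl protein transferase with His6-tagged val12-Ha-Ras-CVLS substrate and [3H]farnesyl pyrophosphate, 30 min at room temperature. Stopped with SDS/TCA, precipitated Ras collected on GF/C filters; percent inhibition relative to DMSO vehicle control.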

Compared with O=C(Nc1ccccc1)N1CCN(C2c3ccc(Cl)cc3CCc3cccnc32)CC1 (stereo not drawn) [Example 182], CSCC[C@H](N)C(=O)N1CCC(CC(=O)N2CCN(C3c4ccc(Cl)cc4CCc4cccnc43)CC2)CC1 (stereo partly drawn) [Example 433-B] is 1.7-fold higher in IC50: 1.09 µM for the first, 1.89 µM for the second. The first is the more potent here.

First: C[S+]([O-])c1ccc(C(=O)N2CCC(=C3c4ccc(Cl)cc4CCc4cccnc43)CC2)cc1 (stereo not drawn) [Example 94]
Second: CNc1ccc(C(=O)N2CCC(=C3c4ccc(Cl)cc4CCc4cccnc43)CC2)cn1 [Example 109]
The IC50 of the first is 1.8-fold lower: 4 µM for the first, 7.2 µM for the second.

First: O=C(c1ccoc1)N1CCC(=C2c3ccc(Cl)cc3CCc3cccnc32)CC1 [Example 55]
Second: Cn1cc(C(=O)N2CCC(=C3c4ccc(Cl)cc4CCc4cccnc43)CC2)ccc1=O [Example 36]
The IC50 of the first is 1.9-fold lower: 5.9 µM for the first, 11.2 µM for the second. The first is the more potent here.

CN(C)c1cc(C(=O)N2CCC(=C3c4ccc(Cl)cc4CCc4cccnc43)CC2)ccn1 [Example 110] was tested, and the IC50 was 8.3 µM.

same assay, conditions: at 4 μM

O=C(Cc1ccc[n+]([O-])c1)N1CCC(C2c3ccc(Cl)cc3CCc3ccc[n+]([O-])c32)CC1 (stereo not drawn) [Example 237] showed an inhibition at 4 µM of 18%.

same assay, conditions: at 13.4 μM

Molecule O=C(c1cc[n+]([O-])cc1)N1CCC(=C2c3ccc(Cl)cc3CCc3ccc[n+]([O-])c32)CC1 [Example 131] has an FPT inhibition of 16% at 13.4 μM.

same assay, conditions: enzyme inhibition; read-out: FPT IC50

CC(C)(C(=O)N1CCC(=C2c3ccc(Cl)cc3CCc3cccnc32)CC1)c1cc[n+]([O-])cc1 [Example 411-E] and CC(C)(C(=O)N1CCN(C2c3ccc(Cl)cc3CCc3cccnc32)CC1)c1ccc[n+]([O-])c1 (stereo not drawn) [Example 425-C] are within 1.5-fold of each other in IC50: 1.14 µM for the first, 1.26 µM for the second.

CC(C)(C(=O)N1CCN(C2c3ccc(Cl)cc3CCc3cccnc32)CC1)c1ccncc1 (stereo not drawn) [Example 425] and O=C(Nc1cc[n+]([O-])cc1)N1CCN(C2c3ccc(Cl)cc3CCc3cccnc32)CC1 (stereo not drawn) [Example 427] are within 1.5-fold of each other in IC50: 1.74 µM for the first, 1.8 µM for the second.

First: O=C(Nc1ccc[n+]([O-])c1)N1CCN(C2c3ccc(Cl)cc3CCc3cccnc32)CC1 (stereo not drawn) [Example 427-A]
Second: CC(=O)ON=C1Cc2cccnc2C(=C2CCN(C(=O)Cc3ccncc3)CC2)c2ccc(Cl)cc21 [Example 420]
The IC50 of the first is 9.6-fold higher: 2.2 µM for the first, 0.23 µM for the second.

tested on: T24-BAG4 human bladder carcinoma cells expressing an activated H-ras gene; assay: Cell Mat Assay: tumor cell colony inhibition (tIC50); assay type: cell-based; conditions: Homo sapiens, inhibition of tumor cell growth
Protocol: (§1) Compound-induced colony inhibition was assayed by addition of serial dilutions of compound directly to the growth medium 24 h after tumor cell planting, and incubating cells for an additional 14 d to allow colony formation. Assays were terminated by rinsing monolayers twice with phosphate-buffered saline (PBS), fixing the monolayers with a 1% glutaraldehyde solution in PBS, then visualizing tumor cells by staining with X-Gal (Price, J., et al., Lineage analysis in the vertebrate nervous system by retrovirus-mediated gene transfer, Proc. Natl. Acad. Sci.84, 156-160(1987)). […] Both IC50 values were obtained by determining the density of tumor cells and mat cells by visual inspection and enumeration of cells per colony and the number of colonies under the microscope.

CC(C)(C(=O)N1CCC(=C2c3ccc(Cl)cc3CCc3cccnc32)CC1)c1cc[n+]([O-])cc1 [Example 411-E] and C[S+]([O-])c1ccc(C(=O)N2CCC(=C3c4ccc(Cl)cc4CCc4cccnc43)CC2)cc1 (stereo not drawn) [Example 94] cannot be ordered by IC50: over 25 µM for the first, 40 µM for the second.

Compared with CC(C)(C(=O)N1CCN(C2c3ccc(Cl)cc3CCc3cccnc32)CC1)c1ccncc1 (stereo not drawn) [Example 425], O=C(Nc1ccncc1)N1CCN(C2c3ccc(Cl)cc3CCc3cccnc32)CC1 (stereo not drawn) [183 (6.5)] is 2.5-fold lower in IC50: 12.5 µM for the first, 5 µM for the second.

First: O=C(Nc1ccccc1)N1CCN(C2c3ccc(Cl)cc3CCc3cccnc32)CC1 (stereo not drawn) [Example 182]
Second: CN1CCCC(CC(=O)N2CCN(C3c4ccc(Cl)cc4CCc4cc(Br)cnc43)CC2)C1 (stereo not drawn) [Example 425-U]
The IC50 of the first is 5.9-fold higher: 37 µM for the first, 6.25 µM for the second. The second is the more potent here.

For O=C(Cc1ccc[n+]([O-])c1)N1CCC(C2c3ccc(Cl)cc3CCc3ccc[n+]([O-])c32)CC1 (stereo not drawn) [Example 237], the IC50 was over 50 µM.

same assay, conditions: inhibition of tumor cell growth

First: O=C(Cc1ccncc1)N1CCC(=C2c3ccncc3CCc3cc(Cl)ccc32)CC1 [160 (5.39)]
Second: O=C(Cc1ccncc1)N1CCC(=C2c3ccc(Cl)cc3CCc3cc(Cl)cnc32)CC1 [180 (5.47)]
The IC50 of the first is 2.1-fold higher: 37 µM for the first, 18 µM for the second. The second is the more potent here.

Going from O=C(C(=O)N1CCC(=C2c3ccc(Cl)cc3CCc3cccnc32)CC1)c1c[nH]c2ccccc12 [219 (5.92)] to O=C(Cc1csc2ccccc12)N1CCC(=C2c3ccc(Cl)cc3CCc3cccnc32)CC1 [221 (5.94)], the IC50 falls from 25 µM to 6.25 µM (4-fold). The second is the more potent here.

With O=C(Cc1ccccc1[N+](=O)[O-])C(=O)N1CCC(=C2c3ccc(Cl)cc3CCc3cccnc32)CC1 [220 (5.93)] the IC50 was 25 µM.

tested on: Normal human HEPM fibroblasts; assay: Cell Mat Assay: density of mat cells (mIC50); assay type: cell-based; conditions: not given
Protocol: as §1

Going from O=C(Cc1ccncc1)N1CCC(=C2c3ccncc3CCc3cc(Cl)ccc32)CC1 [160 (5.39)] to O=C(Cc1ccncc1)N1CCC(=C2c3ccc(Cl)cc3CCc3cc(Cl)cnc32)CC1 [180 (5.47)], the IC50 rises from 50 µM to over 50 µM.

O=C(C(=O)N1CCC(=C2c3ccc(Cl)cc3CCc3cccnc32)CC1)c1c[nH]c2ccccc12 [219 (5.92)] and O=C(Cc1csc2ccccc12)N1CCC(=C2c3ccc(Cl)cc3CCc3cccnc32)CC1 [221 (5.94)] cannot be ordered by IC50: over 50 µM for the first, over 50 µM for the second.

Molecule O=C(Cc1ccccc1[N+](=O)[O-])C(=O)N1CCC(=C2c3ccc(Cl)cc3CCc3cccnc32)CC1 [220 (5.93)] has an IC50 of over 50 µM.

same assay, conditions: Homo sapiens, Fibroblast

CC(C)(C(=O)N1CCC(=C2c3ccc(Cl)cc3CCc3cccnc32)CC1)c1cc[n+]([O-])cc1 [Example 411-E] and C[S+]([O-])c1ccc(C(=O)N2CCC(=C3c4ccc(Cl)cc4CCc4cccnc43)CC2)cc1 (stereo not drawn) [Example 94] cannot be ordered by IC50: over 25 µM for the first, 80 µM for the second.

Going from CC(C)(C(=O)N1CCN(C2c3ccc(Cl)cc3CCc3cccnc32)CC1)c1ccncc1 (stereo not drawn) [Example 425] to O=C(Nc1ccncc1)N1CCN(C2c3ccc(Cl)cc3CCc3cccnc32)CC1 (stereo not drawn) [183 (6.5)], the IC50 falls from over 25 µM to 18 µM. The second is the more potent here.

Compared with O=C(Nc1ccccc1)N1CCN(C2c3ccc(Cl)cc3CCc3cccnc32)CC1 (stereo not drawn) [Example 182], CN1CCCC(CC(=O)N2CCN(C3c4ccc(Cl)cc4CCc4cc(Br)cnc43)CC2)C1 (stereo not drawn) [Example 425-U] is lower in IC50: over 50 µM for the first, 10 µM for the second. The second is the more potent here.

With O=C(Cc1ccc[n+]([O-])c1)N1CCC(C2c3ccc(Cl)cc3CCc3ccc[n+]([O-])c32)CC1 (stereo not drawn) [Example 237] the IC50 was over 50 µM.
